{
  "source": "paper PMC4772870",
  "about": "(2015)",
  "test_system": "d(ATGCAT)2 (DNA, duplex) ATGCAT",
  "test": "melting temperature",
  "conditions": "derived from two Tm (~30 free, ~45 complex); reviewed from authors' ref 23",
  "data": [
    {"smiles": "Cc1cccc2nc3cccc(C(=O)NCCNCCNCCNC(=O)c4cccc5nc6cccc(C)c6nc45)c3nc12", "values": [
      {"measurement": "dTm", "result": "~ 15 °C"}
    ]}
  ]
}
